Measured values published in patent US20250152606A1, “INDUCTION OF IRREVERSIBLE INFERTILITY IN FEMALE MAMMALIAN ANIMALS USING A SINGLE PROGESTERONE IMPLANT” (THE BOARD OF TRUSTEES OF THE UNIVERSITY OF ILLINOIS, priority 2022, published 2025).
Entries after “also recorded” stand apart in the source; their conditions may differ. Read-outs that look alike come from different tables or passages of the source.

What was measured:
[1] = Serum P4 in neonatal rats after P4 treatment (P4-specific ELISA); format: in vivo; conditions: repeated daily injections of P4 (Oil-P4 group)
Experimental: FIG. 2. Pharmacokinetics of progesterone treatment in neonatal rats. Three-day-old rats were treated with 2.0 mg P4 Silastic capsule, (n=5-7), injected daily with 0.5 mg P4 for 7 days (n=5-9), or vehicle (n=5-9).
(§1) Experiments with Silastic capsules. Neonatal female rats (3-day-old [D3]) were divided into 3 groups for the treatment (Chart 1). The Control group was subcutaneously (sc) injected with sesame oil daily for 7-days. The Oil-P4 group was injected sc with progesterone (P4) (0.5 mg P4/50 μl oil) daily for 7-days. The sC-P4 group was implanted sc with a given single P4 Silastic capsule (sC-P4) (2 mg P4/5 μl oil in a Silastic capsule having dimensions: ID 1.02 mm, OD 2.16 mm, Length 8 mm). Sera were collected by tail clipping (n=5-7) on days 6, 10, 14 and 24, and serum P4 was measured by P4-specific ELISA kit (EIA5486, DRG International Inc., NJ). Uterine histology was examined in weeks 7 and 28. Collected uterine tissues were fixed in 4% paraformaldehyde. Tissues were washed with ethanol, processed, and embedded in paraffin wax. Paraffin-embedded tissue blocks were cut into 6 μm thick sections. For general histological observation, slides were stained with hematoxylin and eosin (HE staining). The number of uterine glands was counted from HE-stained uterine tissue sections (n=2-4). At 5-months-old, the estrous cycle was monitored for 10 days by vaginal cytology (n=2-4). […]

female rats = assay: Fertility test with fertility-proven male rats; format: in vivo; conditions: neonatally treated rats tested at 5 months
Experimental: Neonatal P4 Silastic capsule implant induces permanent infertility. Starting at 5-months of age, the estrous cycle was determined by microscopy of vaginal smears for 10 days (Table 1). […] After the estrous cycle observation, female rats were caged with fertility-proven male rats for 1 month to evaluate fertility. Seventy-five percent (¾) of the Control untreated and Oil-P4 groups were fertile, averaging 12 and 13 pups, respectively. By comparison, none of the sC-P4 was fertile.
as §1, with “Collected uterine tissues were fixed in 4% paraformaldehyde. Tissues were washed with ethanol, processed, and embedded in paraffin wax. Paraffin-embedded tissue blocks were cut into 6 μm thick sections. For general histological observation, slides were stained with hematoxylin and eosin (HE staining).” left out

uterine glands = conditions: cited from earlier work
uterine gland = conditions: repetitive injections of neonatal ewe lambs; oviduct, cervix, vagina not inhibited; cited from earlier work

maximum increase in serum P4 levels compared to the Control ([1]; 6 days after the start of injections) [fold]	time serum P4 remained significantly elevated ([1]; experimental day 16) [days]	SMILES	fertility outcome (female rats)	adenogenesis at PND 10 (uterine glands; mice treated with P4 during PND 3-5 or 7-9)	adenogenesis at PND 10 (uterine glands; mice treated with P4 during PND 3-9, 5-9, or 3-7)	uterine glands in adulthood (uterine glands; mice treated with P4 during PND 3-9)	uterine gland development on PND 20 (uterine glands; mice treated with P4 during PND 5-9 or 3-7)	adenogenesis (uterine gland)
2	10	CC(=O)[C@H]1CC[C@H]2[C@@H]3CCC4=CC(=O)CC[C@]4(C)[C@H]3CC[C@]12C [P4, progesterone]	insufficient to achieve infertility	not	abolished adenogenesis	lacked glands in adulthood; also recorded: lack uterine glands in adulthood	resumption of uterine gland development	–
–	–	CC(=O)O[C@]1(C(C)=O)CC[C@H]2[C@@H]3CCC4=CC(=O)CC[C@@H]4[C@H]3[C@@H](C)C[C@@]21C [norgestomet]	–	–	–	–	–	irreversibly inhibits adenogenesis
